“Also recorded” adds a separate entry of the source.
Molecular target: T1, heterodimeric hT1R2/hT1R3 sweet taste receptor (Homo sapiens, UniProt Q7RTX0+Q8TE23)
T1 construct: expressed in transfected cells
T1 sequence (Q8TE23 20-839): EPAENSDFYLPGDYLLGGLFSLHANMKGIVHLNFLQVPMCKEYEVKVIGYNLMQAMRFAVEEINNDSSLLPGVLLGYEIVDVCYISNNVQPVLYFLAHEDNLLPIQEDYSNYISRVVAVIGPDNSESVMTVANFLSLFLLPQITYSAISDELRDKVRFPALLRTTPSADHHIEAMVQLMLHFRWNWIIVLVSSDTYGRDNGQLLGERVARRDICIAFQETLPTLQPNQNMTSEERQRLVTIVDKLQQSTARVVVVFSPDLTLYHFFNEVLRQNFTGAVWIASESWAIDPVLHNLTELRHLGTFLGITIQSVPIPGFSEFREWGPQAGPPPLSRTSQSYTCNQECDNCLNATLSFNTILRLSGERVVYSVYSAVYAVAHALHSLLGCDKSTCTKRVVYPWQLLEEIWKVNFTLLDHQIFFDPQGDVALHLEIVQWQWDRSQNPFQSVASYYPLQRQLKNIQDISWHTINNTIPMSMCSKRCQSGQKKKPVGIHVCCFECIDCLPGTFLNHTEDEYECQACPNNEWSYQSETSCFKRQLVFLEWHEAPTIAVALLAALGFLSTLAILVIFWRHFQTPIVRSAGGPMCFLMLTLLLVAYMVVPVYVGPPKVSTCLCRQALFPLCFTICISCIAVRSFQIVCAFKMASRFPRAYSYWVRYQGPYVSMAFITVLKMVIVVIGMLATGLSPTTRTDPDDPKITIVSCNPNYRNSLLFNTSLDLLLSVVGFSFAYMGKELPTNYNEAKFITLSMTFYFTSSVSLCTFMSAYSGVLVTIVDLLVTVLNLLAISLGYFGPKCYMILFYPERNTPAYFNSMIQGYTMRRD
T1 sequence (Q7RTX0 21-852): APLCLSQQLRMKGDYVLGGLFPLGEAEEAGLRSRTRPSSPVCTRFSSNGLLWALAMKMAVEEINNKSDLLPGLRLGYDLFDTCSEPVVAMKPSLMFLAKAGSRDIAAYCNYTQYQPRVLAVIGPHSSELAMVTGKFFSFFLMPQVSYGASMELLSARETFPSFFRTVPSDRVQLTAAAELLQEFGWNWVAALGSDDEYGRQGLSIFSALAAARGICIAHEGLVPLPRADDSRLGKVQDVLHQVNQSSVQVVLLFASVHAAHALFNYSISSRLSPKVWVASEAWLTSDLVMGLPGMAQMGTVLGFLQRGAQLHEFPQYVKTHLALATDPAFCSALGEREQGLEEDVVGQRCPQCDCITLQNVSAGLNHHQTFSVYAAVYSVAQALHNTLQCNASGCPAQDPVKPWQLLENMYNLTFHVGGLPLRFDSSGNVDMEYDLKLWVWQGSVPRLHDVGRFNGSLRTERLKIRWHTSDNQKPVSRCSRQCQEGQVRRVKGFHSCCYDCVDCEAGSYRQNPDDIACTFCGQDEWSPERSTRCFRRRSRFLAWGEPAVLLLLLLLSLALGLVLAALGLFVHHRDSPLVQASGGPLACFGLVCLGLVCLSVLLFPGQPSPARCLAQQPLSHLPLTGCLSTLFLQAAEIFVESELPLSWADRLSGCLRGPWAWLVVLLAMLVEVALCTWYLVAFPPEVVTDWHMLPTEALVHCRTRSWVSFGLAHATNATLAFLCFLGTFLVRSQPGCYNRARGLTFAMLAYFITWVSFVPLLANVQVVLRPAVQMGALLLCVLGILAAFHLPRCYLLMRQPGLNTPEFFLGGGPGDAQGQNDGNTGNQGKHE
Assay: Recombinant human taste receptor T1R2/T1R3 dependent cell based assay (calcium, Fluo4-AM fluorescence)
Procedure: For measurement of human T1R2/T1R3 taste receptor dependent activity a control cell line without sweet receptor based on HEK 293 and a cell line expressing the sweet receptor hT1R2/hT1R3 based on HEK 293, respectively, are seeded into assay plates and labelled with the calcium sensitive fluorescence dye Fluo4-AM in a culture medium. The potential modulators, e.g. the test compound, are added to the control cell line and to the cell line expressing the sweet receptor hT1R2/hT1R3, respectively.
A stable cell line based on HEK293 was termed HEKα15#17 served as control for functional Ga-protein and a stable cell line HEKGα15#17R2R3b#8 C6 served as cell line expressing the sweet receptor hT1R2/hT1R3 based on HEKGα15#17.
The cells were cultured in DMEM/HG and 10% FCS Gold, 4 mM L-Glutamin, 1,3 mg/ml Geneticin (HEKGα15#17) or the same medium additionally containing 6 μg/ml Blasticidin (HEKGα15#17R2R3b#8 C6). The medium for the assay was DMEM/HG (high glucose, 4.5 g/l glucose, Life Technologies) and 10% FCS Gold, 4 mM L-Glutamin (HEKGα15#17) or DMEM/LG (low glucose, 1 g/l glucose; Life Technologies) and 10% FCS Gold (HEKGα15#17R2R3b#8C6), respectively.
In order to evaluate the sweet receptor modulating activity of the compound of formula (Ia), compound of formula (Ia) was added to the cultures in a concentration of 25 μM in a volume of 50 μl. Controls were KH-buffer (Krebs HEPES-buffer: 118 mM NaCl, 4.7 mM KCl, 1.2 mM MgSO4, 1.2 mM KH2PO4, 4.2 mM NaHCO3, 1.3 mM CaCl2, 10 mM Hepes, pH 7.4) either without or with sweetness enhancer.
Further controls for function of G-protein and receptor were isoproterenol (1 μM, Sigma Aldrich), ionomycin (1 μM, Calbiochem) and ATP (1 μM, Applichem). […]
On day 2 the cells were seeded into assay plates at a density of 25,000 cells/well. Assay plates for fluorescence measurement (black clear bottom 96-cavity plates, Greiner Bio-One) were coated with poly-D-lysine. […]

With `CC(=O)N(O)CCCCCNC(=O)C(O)(CC(=O)O)CC(=O)NCCCN(O)C(C)=O` (stereo not drawn) [compound of formula (Ia)] as the compound, how does the “Enhancement of the activity of fructose (sweetness enhancer activity in vitro)” value (25 μM with fructose (20 mM) versus KH buffer/fructose) read?
The value was “fructose enhancer; also recorded: enhances the activity of fructose”.

What about the “Time response in the cell assay” value (measured over a period of 78 seconds, FIG. 2 / inserted graph) of the same compound?
The value was “selective stimulation of receptor carrying cells”.

What about the “Fluo4-AM fluorescence increase (cellular activation)” value (primary screening, receptor carrying cells only, FIG. 1 sixth bar) of the same compound?
The value was “strong cellular activation”.

— patent publication US20140010939A1, “Sweetness Enhancers, Sweetener Compositions, Methods of Making the Same and Consumables Containing the Same” (Nutrinova Nutrition Specialties & Food Ingredients GmbH, priority 2011, published 2014)
